According to patent US20190330220A1, “METHODS OF MAKING SUBSTITUTED PORPHYRIN PHARMACEUTICAL COMPOUNDS AND COMPOSITIONS” (Duke University, priority 2016, published 2019):
Read-outs that look alike come from different tables or passages of the source.

What was measured:
[1] = toxicity compared with analogous alkyl-chain Mn porphyrins
[2] = electrochemistry, Mn(III)/Mn(II) reduction potential; type: physicochemical
Method: (§1) Electrochemistry, electrospray-ionization mass spectrometry (ESI-MS), UV-visible spectroscopy and SOD-like activity were carried out as previously described.^29, 32. All quantum chemistry calculations have been performed at the M06-2X/6-311++G(2d,p)//M06-2X/6-31+G(d) DFT level^33-38 using the Gaussian 09 software.^39 All frequency calculations were carried out at […] and used to characterize minima and transition states. The solvent effect has been taken into account using the CPCM continuum solvation model^40 for N,N-dimethylformamide (DMF). The free energies of reactants, transition states, and products have been obtained from the ideal gas partition functions for the structures optimized in solution^40 and corrected to include the compression work of the gas^41 (or liberation free energy^42) to standard 1 mol L^−1 concentration. The coulombic stabilization energy due to the formation of ionic pairs in DMF has also been included in the final results by approximating each ion as a sphere, whose volume was considered the same as that of the solute cavity;^43 the distance between cation and anion in the ionic pair was taken as the sum of the two sphere radii.

[3] = rat Comet assay (genotoxicity); settings: pre-clinical studies
SOD-like activity = type: biochemical
Method: as §1

[4] = lipophilicity of Mn porphyrin complex
[5] = background statement; cited from earlier work
cells = settings: compared with ethyl analogue, background statement; cited from earlier work

CCCCOCC[n+]1ccccc1C1=C2C=CC3=[N+]2[Mn]24[n]5c1ccc5C(c1cccc[n+]1CCOCCCC)=C1C=CC(=[N+]12)C(c1cccc[n+]1CCOCCCC)=c1ccc([n]14)=C3c1cccc[n+]1CCOCCCC [MnTnBuOE-2-PyP^5+, Mn(III) meso-tetrakis-(N-n-butoxyethylpyridinium-2-yl)porphyrin]
toxicity [1]: low toxicity | fold less toxic than analogous ortho alkyl MnP^5+ ([1]; relative to analogous alkyl chains): 4-5 fold | Mn(III)/Mn(II) reduction potential (E1/2) [2]: high | genotoxicity in a rat Comet assay [3]: lack of genotoxicity | SOD-like activity (SOD-like activity): high | lipophilicity [4]: lipophilic

CC[n+]1ccccc1-c1c2nc(c(-c3cccc[n+]3CC)c3ccc([n-]3)c(-c3cccc[n+]3CC)c3nc(c(-c4cccc[n+]4CC)c4ccc1[n-]4)C=C3)C=C2.[Mn+3] [MnTE-2-PyP^5+, Mn(III) meso-tetrakis-(N-ethylpyridinium-2-yl)porphyrins]
lipophilicity [5]: low lipophilicity

CCCCCC[n+]1ccccc1-c1c2nc(c(-c3cccc[n+]3CCCCCC)c3ccc([n-]3)c(-c3cccc[n+]3CCCCCC)c3nc(c(-c4cccc[n+]4CCCCCC)c4ccc1[n-]4)C=C3)C=C2.[Mn+3] [MnTnHex-2-PyP^5+, Mn(III) meso-tetrakis-(N-n-hexylpyridinium-2-yl)porphyrin]
accumulation in cells (cells): higher levels than its ethyl analogue
